From the NIST ThermoML archive (doi:10.1021/acs.jced.5b00582)
± gives the expanded uncertainty stated by the source.

Key:
[1] = Liquid; for mass density: 298.15 K, 101.33 kPa, Pycnometric method; for vapor or sublimation pressure: Ebulliometric method (Recirculating still)
[2] = refractive index (Na D-line) (dimensionless); conditions: 298.15 K; 101.33 kPa; Liquid; Standard Abbe refractometry

mass density [1] [kg/m3] | vapor or sublimation pressure ([1]; 397.48 K) [kPa] | refractive index [2] | vapor or sublimation pressure ([1]; 385.12 K) [kPa] | vapor or sublimation pressure ([1]; 357.71 K) [kPa] | Structure (SMILES) | vapor or sublimation pressure ([1]; 352.76 K) [kPa]
960.1 ± 0.3 | 101.3 ± 0.86 | 1.4002 ± 0.0004 | – | – | COCCO [2-methoxyethan-1-ol] | –
863.8 ± 0.3 | – | 1.3872 ± 0.0004 | 101.3 ± 0.86 | – | CCC(C)OC(C)=O (configuration not stated) [1-methylpropyl ethanoate] | –
860.4 ± 0.3 | – | 1.378 ± 0.0004 | – | 101.3 ± 0.86 | COCCOC [1,2-dimethoxyethane] | –

Structure (SMILES) | mass density [1] [kg/m3] | vapor or sublimation pressure ([1]; 397.48 K) [kPa] | refractive index [2] | vapor or sublimation pressure ([1]; 385.12 K) [kPa] | vapor or sublimation pressure ([1]; 357.71 K) [kPa] | vapor or sublimation pressure ([1]; 352.76 K) [kPa]
CCC(C)=O [butanone] | 799.7 ± 0.3 | – | 1.3761 ± 0.0004 | – | – | 101.3 ± 0.86
